Measured values published in paper PMC11930087, “Mobility of four structural regions drives isoform-specific properties of photoenzyme LPOR in plants” (The Journal of Biological Chemistry, 2025).
Where two headings read alike, the source gives them in different places.

Experiments:
SlPOR2 = target: T1, SlPOR2 (Solanum lycopersicum, UniProt A0A3Q7IBI0); test: […] K Pchlide fluorescence in darkness, F648/F635 ratio vs NADPH, hyperbolic fit; assay type: binding; conditions: lipid-free; 5 μM Pchlide, 15 μM LPOR, pH 7.1, room-temperature dark incubation; apparent parameter, exact value in supplement; read-out: KM^D
T1 construct: gene POR; transit peptide removed; pET15b
T1 sequence (A0A3Q7IBI0 62-395): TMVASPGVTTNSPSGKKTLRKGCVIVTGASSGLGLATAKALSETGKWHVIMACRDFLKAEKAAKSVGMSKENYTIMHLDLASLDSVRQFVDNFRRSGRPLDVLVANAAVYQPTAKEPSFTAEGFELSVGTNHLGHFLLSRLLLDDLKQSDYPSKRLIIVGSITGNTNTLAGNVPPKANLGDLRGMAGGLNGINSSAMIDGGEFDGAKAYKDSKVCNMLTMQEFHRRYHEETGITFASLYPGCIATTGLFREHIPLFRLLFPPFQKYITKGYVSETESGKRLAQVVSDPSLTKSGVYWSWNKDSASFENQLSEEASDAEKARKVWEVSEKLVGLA

TaPOR1 = target: T2, TaPOR1 (Triticum aestivum, UniProt Q41578); test: as above; assay type: binding; conditions: lipid-free; 5 μM Pchlide, 15 μM LPOR, pH 7.1, room-temperature dark incubation; apparent parameter, exact value in supplement; read-out: KM^D
T2 construct: gene PORA
T2 sequence (Q41578 75-388): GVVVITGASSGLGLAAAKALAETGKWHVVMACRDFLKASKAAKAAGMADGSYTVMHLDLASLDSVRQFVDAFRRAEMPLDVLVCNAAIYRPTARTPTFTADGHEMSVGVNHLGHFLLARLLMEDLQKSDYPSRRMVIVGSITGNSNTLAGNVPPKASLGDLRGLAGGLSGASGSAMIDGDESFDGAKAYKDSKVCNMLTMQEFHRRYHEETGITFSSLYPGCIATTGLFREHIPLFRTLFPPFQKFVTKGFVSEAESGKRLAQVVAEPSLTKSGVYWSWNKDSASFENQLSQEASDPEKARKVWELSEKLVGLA

AtPORB = target: T3, AtPORB (Arabidopsis thaliana, UniProt P21218); test: as above; assay type: binding; conditions: lipid-free; 5 μM Pchlide, 15 μM LPOR, pH 7.1, room-temperature dark incubation; apparent parameter, exact value in supplement; read-out: KM^D
T3 construct: gene PORB
T3 sequence (P21218 67-401): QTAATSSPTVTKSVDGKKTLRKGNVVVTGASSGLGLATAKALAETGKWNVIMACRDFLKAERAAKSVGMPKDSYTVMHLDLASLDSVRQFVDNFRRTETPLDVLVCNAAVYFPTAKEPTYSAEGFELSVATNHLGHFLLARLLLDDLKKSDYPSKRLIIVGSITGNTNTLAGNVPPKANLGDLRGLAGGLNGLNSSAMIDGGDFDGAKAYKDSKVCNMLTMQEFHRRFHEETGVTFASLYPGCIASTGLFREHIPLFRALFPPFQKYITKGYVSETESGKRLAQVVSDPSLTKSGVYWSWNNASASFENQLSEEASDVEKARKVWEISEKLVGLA

HaPOR2 = target: T4, HaPOR2 (Helianthus annuus, UniProt A0A251TWA4); test: as above; assay type: binding; conditions: lipid-free; 5 μM Pchlide, 15 μM LPOR, pH 7.1, room-temperature dark incubation; apparent parameter, exact value in supplement; read-out: KM^D
T4 construct: gene PORA; transit peptide removed; pET15b
T4 sequence (A0A251TWA4 53-387): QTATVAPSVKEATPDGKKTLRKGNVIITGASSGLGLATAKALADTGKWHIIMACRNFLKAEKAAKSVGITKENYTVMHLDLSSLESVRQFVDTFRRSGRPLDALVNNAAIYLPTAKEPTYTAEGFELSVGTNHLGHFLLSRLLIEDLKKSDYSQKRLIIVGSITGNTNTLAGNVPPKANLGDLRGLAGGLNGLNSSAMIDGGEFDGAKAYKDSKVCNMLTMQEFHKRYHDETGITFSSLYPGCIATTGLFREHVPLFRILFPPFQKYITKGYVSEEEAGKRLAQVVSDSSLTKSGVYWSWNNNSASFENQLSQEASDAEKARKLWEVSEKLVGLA

SlPOR1 [1] = target: T5, SlPOR1 (Solanum lycopersicum, UniProt A0A3Q7HEX8); test: as above; assay type: binding; conditions: lipid-free; 5 μM Pchlide, 15 μM LPOR, pH 7.1, room-temperature dark incubation; apparent parameter, exact value in supplement; read-out: KM^D
T5 construct: gene POR2; transit peptide removed; pET15b
T5 sequence (A0A3Q7HEX8 65-399): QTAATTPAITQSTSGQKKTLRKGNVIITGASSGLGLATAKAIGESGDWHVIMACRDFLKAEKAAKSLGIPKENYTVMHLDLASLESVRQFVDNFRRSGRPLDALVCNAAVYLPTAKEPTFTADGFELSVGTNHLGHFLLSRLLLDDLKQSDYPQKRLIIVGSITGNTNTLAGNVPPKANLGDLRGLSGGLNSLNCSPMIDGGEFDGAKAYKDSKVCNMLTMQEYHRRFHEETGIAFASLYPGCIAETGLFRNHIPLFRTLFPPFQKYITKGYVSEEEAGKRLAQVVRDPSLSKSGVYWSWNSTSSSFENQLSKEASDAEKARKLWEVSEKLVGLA

SlPOR1 [2] = target: T5, SlPOR1; conditions: 5 uM Pchlide, 15 uM LPOR, binder
Protocol: (§1) (Figs. 3A, S2). […] The resulting plots resembled saturation curves, to which a hyperbolic function similar to the Michaelis–Menten equation could be fitted (Figs. 3B, S3, Materials and Methods). […] However, KM^L values were consistently lower than KM^D values. […] The addition of 400 μM OPT lipids lowered the KM^D constant for all isoforms, except for SlPOR1, SlPOR3, HaPOR1, HaPOR2, and PeaPOR, where the constant remained unchanged within error estimates. […] Shaded areas represent the SD between replicates. […] A fit of a modified Michaelis–Menten equation is shown, along with the graphical representation of KM^D (B) or KM^L (C). Spectra corresponding to the given F648/F635 values (B) or F Chlide/F Pchlide values (C) are shown on the right side of the plot. D, relationship between KM^D and KM^L for investigated isoforms. The overall distribution of data points is shown in gray. Error bars represent the uncertainty associated with the fitted constant KM^x. Closed symbols represent constants determined for samples not supplemented with lipids, while open symbols these determined in the presence of 400 μM OPT lipids. LPOR, light-dependent protochlorophyllide oxidoreductase; Pchlide, protochlorophyllide; Chlide, chlorophyllide.

SlPOR3 = target: T6, SlPOR3 (Solanum lycopersicum, UniProt A0A3Q7J565); conditions: 5 uM Pchlide, 15 uM LPOR, binder
T6 construct: gene LOC101248079; transit peptide removed; pET15b
T6 sequence (A0A3Q7J565 63-397): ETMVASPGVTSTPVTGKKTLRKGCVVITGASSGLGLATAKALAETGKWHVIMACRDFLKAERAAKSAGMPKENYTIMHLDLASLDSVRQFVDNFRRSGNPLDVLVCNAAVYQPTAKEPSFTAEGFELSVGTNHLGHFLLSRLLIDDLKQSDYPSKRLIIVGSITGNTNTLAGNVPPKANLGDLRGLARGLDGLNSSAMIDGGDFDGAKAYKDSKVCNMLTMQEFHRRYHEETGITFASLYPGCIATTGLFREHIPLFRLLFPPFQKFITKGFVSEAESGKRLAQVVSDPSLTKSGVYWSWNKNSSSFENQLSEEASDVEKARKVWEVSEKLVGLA
Protocol: as §1

Kd (SlPOR2): < 10 µM
Kd (TaPOR1): > 100 µM
Kd (AtPORB): > 100 µM
Kd (HaPOR2): < 10 µM
Kd (SlPOR1 [1]): < 10 µM
apparent Michaelis constant in the dark (KM^D) (SlPOR1 [2]; 400 uM OPT lipids): 7.2 µM
apparent Michaelis constant in the dark (KM^D) (SlPOR1 [2]; no lipids): 8.6 µM
apparent Michaelis constant in dark (KM^D) (SlPOR3; 400 uM OPT lipids): 3 µM
apparent KM (dark, KM^D) (SlPOR3; no lipids): 4.9 µM
SMILES: NC(=O)C1=CN([C@@H]2O[C@H](COP(=O)(O)OP(=O)(O)OC[C@H]3O[C@@H](n4cnc5c(N)ncnc54)[C@H](OP(=O)(O)O)[C@@H]3O)[C@@H](O)[C@H]2O)C=CC1 [NADPH]
